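The concentration for 50% growth inhibition is given as GI50. The concentration for full growth arrest is given as TGI.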
Tests used:
Test in all cases: growth of human tumour cells (NCI), 384-well format
786-0 renal = test system: 786-0 renal
A498 renal = test system: A498 renal
A549 NSCLC = test system: A549 NSCLC
ACHN renal = test system: ACHN renal
BT-549 breast = test system: BT-549 breast
CAKI-1 renal = test system: CAKI-1 renal
COLO 205 colon = test system: COLO 205 colon
DU-145 prostate = test system: DU-145 prostate
EKVX NSCLC = test system: EKVX NSCLC
HCC-2998 colon = test system: HCC-2998 colon
HCT-116 colon = test system: HCT-116 colon
HCT-15 colon = test system: HCT-15 colon
HL-60(TB) leukemia = test system: HL-60(TB) leukemia
HOP-62 NSCLC = test system: HOP-62 NSCLC
HOP-92 NSCLC = test system: HOP-92 NSCLC
HS 578T breast = test system: HS 578T breast
HT29 colon = test system: HT29 colon
IGROV1 ovarian = test system: IGROV1 ovarian
KM12 colon = test system: KM12 colon
LOX IMVI melanoma = test system: LOX IMVI melanoma
M14 melanoma = test system: M14 melanoma
MALME-3M melanoma = test system: MALME-3M melanoma
MCF7 breast = test system: MCF7 breast
MDA-MB-231 breast = test system: MDA-MB-231 breast
MDA-MB-435 melanoma = test system: MDA-MB-435 melanoma
MDA-MB-468 breast = test system: MDA-MB-468 breast
MOLT-4 leukemia = test system: MOLT-4 leukemia
NCI-H226 lung = test system: NCI-H226 lung
NCI-H23 lung = test system: NCI-H23 lung
NCI-H322M lung = test system: NCI-H322M lung
NCI-H460 NSCLC = test system: NCI-H460 NSCLC
NCI-H522 lung = test system: NCI-H522 lung
NCI/ADR-RES ovarian = test system: NCI/ADR-RES ovarian
OVCAR-3 ovarian = test system: OVCAR-3 ovarian
OVCAR-4 ovarian = test system: OVCAR-4 ovarian
OVCAR-5 ovarian = test system: OVCAR-5 ovarian
OVCAR-8 ovarian = test system: OVCAR-8 ovarian
PC-3 prostate = test system: PC-3 prostate
RPMI-8226 leukemia = test system: RPMI-8226 leukemia
RXF 393 renal = test system: RXF 393 renal
SF-268 CNS = test system: SF-268 CNS
SF-295 CNS = test system: SF-295 CNS
SF-539 CNS = test system: SF-539 CNS
SK-MEL-28 melanoma = test system: SK-MEL-28 melanoma
SK-MEL-5 melanoma = test system: SK-MEL-5 melanoma
SK-OV-3 ovarian = test system: SK-OV-3 ovarian
SN12C renal = test system: SN12C renal
SNB-19 CNS = test system: SNB-19 CNS
SNB-75 CNS = test system: SNB-75 CNS
SR leukemia = test system: SR leukemia
SW-620 colon = test system: SW-620 colon
T-47D breast = test system: T-47D breast
TK-10 renal = test system: TK-10 renal
U251 glioblastoma = test system: U251 glioblastoma
UACC-257 melanoma = test system: UACC-257 melanoma
UACC-62 melanoma = test system: UACC-62 melanoma
UO-31 renal = test system: UO-31 renal

## COc1nc(N)nc2c1ncn2[C@@H]1O[C@H](CO)[C@@H](O)[C@@H]1O
786-0 renal
  GI50: > 100 µM
  TGI: > 100 µM
A498 renal
  GI50: > 100 µM
  TGI: > 100 µM
A549 NSCLC
  GI50: > 100 µM
  TGI: > 100 µM
ACHN renal
  GI50: > 100 µM
  TGI: > 100 µM
BT-549 breast
  GI50: > 100 µM
  TGI: > 100 µM
CAKI-1 renal
  GI50: > 100 µM
  TGI: > 100 µM
COLO 205 colon
  GI50: > 100 µM
  TGI: > 100 µM
DU-145 prostate
  GI50: > 100 µM
  TGI: > 100 µM
EKVX NSCLC
  GI50: > 100 µM
  TGI: > 100 µM
HCC-2998 colon
  GI50: > 100 µM
  TGI: > 100 µM
HCT-116 colon
  GI50: > 100 µM
  TGI: > 100 µM
HCT-15 colon
  GI50: > 100 µM
  TGI: > 100 µM
HL-60(TB) leukemia
  GI50: > 100 µM
  TGI: > 100 µM
HOP-62 NSCLC
  GI50: > 100 µM
  TGI: > 100 µM
HOP-92 NSCLC
  GI50: > 100 µM
  TGI: > 100 µM
HS 578T breast
  GI50: > 100 µM
  TGI: > 100 µM
HT29 colon
  GI50: > 100 µM
  TGI: > 100 µM
IGROV1 ovarian
  GI50: > 100 µM
  TGI: > 100 µM
KM12 colon
  GI50: > 100 µM
  TGI: > 100 µM
LOX IMVI melanoma
  GI50: > 100 µM
  TGI: > 100 µM
M14 melanoma
  GI50: > 100 µM
  TGI: > 100 µM
MALME-3M melanoma
  GI50: > 100 µM
  TGI: > 100 µM
MCF7 breast
  GI50: > 100 µM
  TGI: > 100 µM
MDA-MB-231 breast
  GI50: > 100 µM
  TGI: > 100 µM
MDA-MB-435 melanoma
  GI50: > 100 µM
  TGI: > 100 µM
MDA-MB-468 breast
  GI50: > 100 µM
  TGI: > 100 µM
MOLT-4 leukemia
  GI50: 1.31 µM
  TGI: 2.59 µM
NCI-H226 lung
  GI50: > 100 µM
  TGI: > 100 µM
NCI-H23 lung
  GI50: > 100 µM
  TGI: > 100 µM
NCI-H322M lung
  GI50: > 100 µM
  TGI: > 100 µM
NCI-H460 NSCLC
  GI50: > 100 µM
  TGI: > 100 µM
NCI-H522 lung
  GI50: > 100 µM
  TGI: > 100 µM
NCI/ADR-RES ovarian
  GI50: > 100 µM
  TGI: > 100 µM
OVCAR-3 ovarian
  GI50: > 100 µM
  TGI: > 100 µM
OVCAR-4 ovarian
  GI50: > 100 µM
  TGI: > 100 µM
OVCAR-5 ovarian
  GI50: > 100 µM
  TGI: > 100 µM
OVCAR-8 ovarian
  GI50: > 100 µM
  TGI: > 100 µM
PC-3 prostate
  GI50: > 100 µM
  TGI: > 100 µM
RPMI-8226 leukemia
  GI50: > 100 µM
  TGI: > 100 µM
RXF 393 renal
  GI50: > 100 µM
  TGI: > 100 µM
SF-268 CNS
  GI50: > 100 µM
  TGI: > 100 µM
SF-295 CNS
  GI50: > 100 µM
  TGI: > 100 µM
SF-539 CNS
  GI50: > 100 µM
  TGI: > 100 µM
SK-MEL-28 melanoma
  GI50: > 100 µM
  TGI: > 100 µM
SK-MEL-5 melanoma
  GI50: > 100 µM
  TGI: > 100 µM
SK-OV-3 ovarian
  GI50: > 100 µM
  TGI: > 100 µM
SN12C renal
  GI50: > 100 µM
  TGI: > 100 µM
SNB-19 CNS
  GI50: > 100 µM
  TGI: > 100 µM
SNB-75 CNS
  GI50: > 100 µM
  TGI: > 100 µM
SR leukemia
  GI50: > 100 µM
  TGI: > 100 µM
SW-620 colon
  GI50: > 100 µM
  TGI: > 100 µM
T-47D breast
  GI50: > 100 µM
  TGI: > 100 µM
TK-10 renal
  GI50: > 100 µM
  TGI: > 100 µM
U251 glioblastoma
  GI50: > 100 µM
  TGI: > 100 µM
UACC-257 melanoma
  GI50: > 100 µM
  TGI: > 100 µM
UACC-62 melanoma
  GI50: > 100 µM
  TGI: > 100 µM
UO-31 renal
  GI50: > 100 µM
  TGI: > 100 µM

— PubChem BioAssay (NCI)
